{"source": "patent US20240209353A1", "about": "“NADK2 INHIBITION IN CANCER AND FIBROTIC DISORDERS” (Memorial Sloan-Kettering Cancer Center, priority 2021, published 2024)", "key": {"DLD1 and T47D cells": {"system": "DLD1 and T47D cells", "test": "Cell death quantification (ferroptosis sensitivity)", "format": "cell-based", "procedure": "Cells were seeded in 96-well plates at appropriate cell densities (DLD1: 10000 cells/well, T47D: 15000 cells/well), and incubated overnight at 37° C. containing 5% CO2. Contact-inhibited MEFs were seeded in 24-well plates and incubated as described above. Cell were then subjected to treatments as described in figures. Cells were stained with Hoechst 33342 (0.1 μg/ml) to monitor total cell number, and with Sytox Green (5 nM) to monitor cell death. Culture plates were read by Cytation 5 at indicated time point. Percentage of cell death was calculated as Sytox Green-positive cell number over total cell number."}, "[1]": {"system": "DLD1, T47D and HaCaT cells", "test": "Western blot: GSH synthesis enzymes, peroxiredoxin oxidation", "format": "cell-based, human", "conditions": "100 μM MitoPQ, 24 hours; similar extent in cells lacking NADK2 and control cells", "description": "Protein was then transferred to nitrocellulose membrane for immunoblotting."}, "NIH-3T3 cells": {"system": "NIH-3T3 cells", "conditions": "0.15 mM proline in culture medium", "procedure": "(§1) Cells were lysed in RIPA lysis buffer (Millipore 20-188) supplemented with protease inhibitors (Thermo Fisher, 78428). Protein concentration was determined by BCA protein assay (Thermo Fisher, 23228), following which equal amount of protein was loaded and separated in polyacrylamide gels. Protein was then transferred to nitrocellulose membrane for immunoblotting."}, "MEFs [2]": {"system": "MEFs", "conditions": "300 μM proline added to culture medium", "procedure": "as §1"}, "MEFs [3]": {"system": "MEFs", "conditions": "proline supplementation to the medium", "quoted_text": "In brief, confluent MEFs were grown for two days on plates coated with 0.1% gelatin in the presence of 50 μM ascorbate (Sigma, A4034) in the indicated medium. Plates were decellularized with 20 mM ammonium hydroxide/0.5% Triton X-100 for 5 min on a rotating platform. Three times the volume of PBS was added, and ECM was equilibrated overnight at 4° C., followed by four additional PBS washes. To measure collagen abundance, extracted ECM was stained with the Picro Sirius Red Stain Kit (Abcam, ab150681) according to the manufacturer's instructions. The stain was extracted with 0.1 M NaOH, and optical density was measured at 550 nm using a microplate reader. Values were normalized to the packed cell volume of cells grown on a separate plate under the same experimental conditions."}, "[4]": {"system": "T47D, MCF10A, HaCaT and DLD1 cells", "test": "Cell proliferation (cell number fold change)", "format": "cell-based, human", "conditions": "supplements at concentrations present in DMEM/F12", "procedure": "FIGS. 3A-3B show cell proliferation measured as cell number fold change (Day 4/Day 0) of T47D cells treated with sgCtrl, sgNADK2-1, or sgNADK2-2, cultured in the indicated medium and supplementation. “LA” is lipoic acid. “Pyr” is pyruvate. “Cu” is cupric sulfate. “Zn” is zinc sulfate. “B12” is vitamin B12. “A” is alanine. “D” is aspartate. “N” is asparagine. “E” is glutamate, and “P” is proline. All supplements were added at the concentrations present in DMEM/F12. […] FIGS. 3D-3F show a Western blot (FIG. 3D), proline abundance measured by GC-MS (FIG. 3E), and cell proliferation (FIG. 3F) of DMEM-cultured T47D cells treated with sgCtrl or sgNADK2-2 and ectopically expressing vector or NADK2 cDNA resistant to sgNADK2-2 mediated CRISPR-Cas9 genome editing. FIGS. 3G-3I show a Western blot (FIG. 3G), proline abundance measured by GC-MS (FIG. 3H), and cell proliferation (FIG. 3I) of DMEM-cultured T47D cells treated with sgCtrl, sgNADK2-1, or sgNADK2-2 and ectopically expressing vector or the POS5 cDNA. All error bars represent mean+SD, n=3. In FIGS. 3A-3C, 3H, and 3I, one-way ANOVA was performed. In FIGS. 3E and 3F, a two-sided t-test was performed with Welch's correction. ** P<0.01; *** P<0.001; n.s., P>0.05.\nFIGS. 8D-8H show cell proliferation measured as cell number fold change of the indicated cells with sgCtrl, sgNADK2-1, or sgNADK2-2, cultured in the indicated medium and supplementation. […]"}}, "note": "Where two headings read alike, the source gives them in different places."}
{"smiles": "CCOc1ccccc1-n1c(C(C)N2CCN(C(=O)COc3ccc(Cl)cc3)CC2)nc2ccccc2c1=O", "note": "(centres unmarked) [Erastin]", "values": [{"measurement": "cell death of cells lacking NADK2 upon ferroptosis inducer", "setting": "DLD1 and T47D cells", "value": "no increase in cell death"}]}
{"smiles": "COC(=O)c1ccc([C@@H]2c3[nH]c4ccccc4c3C[C@@H](C(=O)OC)N2C(=O)CCl)cc1", "note": "[RSL3]", "values": [{"measurement": "cell death of cells lacking NADK2 upon ferroptosis inducer", "setting": "DLD1 and T47D cells; vs control cells, 24 or 48 hours", "value": "no increase in cell death"}]}
{"smiles": "C[n+]1ccc(-c2cc[n+](CCCCCCCCCC[P+](c3ccccc3)(c3ccccc3)c3ccccc3)cc2)cc1.[I-].[I-].[I-]", "note": "[MitoParaquat]", "values": [{"measurement": "expression of enzymes involved in GSH synthesis", "setting": "[1]", "value": "increased"}]}
{"smiles": "O=C(O)[C@@H]1CCCN1", "note": "[proline, L-proline]", "values": [{"measurement": "expression of collagen protein in P5CS-deleted cells upon proline addition", "setting": "NIH-3T3 cells", "value": "restored"}, {"measurement": "ATF4 accumulation in cells lacking NADK2", "setting": "MEFs [2]", "value": "blunted"}, {"measurement": "collagen expression in cells lacking NADK2", "setting": "MEFs [2]", "value": "restored"}, {"measurement": "collagen secretion of fibroblasts lacking NADK2 upon supplementation", "setting": "MEFs [3]", "value": "rescued"}, {"measurement": "growth of cells lacking NADK2 in DMEM upon supplementation", "setting": "[4]", "value": "necessary and sufficient to restore proliferation"}]}
